Measured values: US7829560B2, “1,4-disubstituted naphthalenes as inhibitors of P38 MAP kinase” (Arqule, Inc., priority 2004, dated 2010)

Tests used:
p38α = target: T1, p38α (Homo sapiens, UniProt Q16539); assay: p38 MAP Kinase assay: inhibition of ATF2 phosphorylation, ELISA; assay type: biochemical; details: for IC50: ATF2 phosphorylation, read-out: [ENZ] P38 ALPHA, IC50, ELISA
T1 construct: p38 MAP Kinases are recombinant human full-length proteins with an amino-terminal GST fusion; GST (N); purchased Upstate Biotechnology Inc; host or cells: E. coli
T1 sequence (Q16539 whole entry, the tested form may be a part): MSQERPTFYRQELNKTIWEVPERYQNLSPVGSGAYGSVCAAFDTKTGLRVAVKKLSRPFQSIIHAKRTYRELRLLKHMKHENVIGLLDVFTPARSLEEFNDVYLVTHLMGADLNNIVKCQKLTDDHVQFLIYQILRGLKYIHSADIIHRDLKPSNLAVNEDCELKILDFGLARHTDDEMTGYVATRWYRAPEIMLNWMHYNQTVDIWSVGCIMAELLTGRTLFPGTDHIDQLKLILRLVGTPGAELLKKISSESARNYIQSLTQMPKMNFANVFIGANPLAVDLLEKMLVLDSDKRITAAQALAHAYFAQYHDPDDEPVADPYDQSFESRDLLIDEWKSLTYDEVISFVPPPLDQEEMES
Summary of the method: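 GST-tagged full-length human p38 MAP kinase with GST-ATF2 (aa 19–96; 1.25 μM) and 40 μM ATP in HEPES pH 7.5 buffer, without (Method I) or with (Method II) 1% human serum albumin. Compound pre-incubated 15 min at room temperature; reaction 30 min at 37 °C; ATF2 Thr69 phosphorylation measured by ELISA (A450).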

[1] = test system: TNFα release from THP-1 cells; assay: Inhibition of TNFα release from LPS-stimulated THP-1 cells, ELISA; assay type: cell-based; details: Homo sapiens, THP-1, THP-1 cells, read-out: [CELL] THP-1, IC50, TNF ALPHA, ELISA
Summary of the method: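 Human THP-1 monocytes, 10^6 cells/ml in RPMI with 10% FBS, no serum or 1% HSA, preincubated 30 min at 37 °C with compound (≤0.5% DMSO), then stimulated with 10 μg/ml LPS for 18 h. Supernatant TNFα measured by ELISA; IC50 from non-linear dose-response regression.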

SMILES	IC50 (p38α) [nM]	IC50 [1] [nM]	inhibition at 10 µM (p38α; 10 uM, substrate ATF2, read-out: [ENZ] P38 ALPHA, PCT INH, ELISA (10 uM;ATF2) (Percent)) [%]
O=C(Nc1ccc(OCCN2CCSCC2)c2ccccc12)c1ccc(CN2CCOCC2)cc1 [Compound B4]	> 100000	> 10000	
O=C(Nc1ccc(OCCN2CCOCC2)c2ccccc12)c1cccc(-c2ccc(F)cc2F)c1 [Compound B100]	744	1590	86
CSc1nccc(Oc2ccc(NC(=O)c3cccc(-c4ccc(F)cc4C)c3)c3ccccc23)n1 [Compound B269, 4′-Fluoro-2′-methyl-biphenyl-3-carboxylic acid [4-(2-methylsulfanylpyrimidin-4-yloxy)-naphthalen-1-yl]-amide]	162	152	
O=C(Nc1ccc(Oc2ccnc(N3CCCCC3)n2)c2ccccc12)c1cc(F)cc(N2CCCCC2)c1 [Compound B375, 3-Fluoro-5-piperidin-1-yl-N-{4-[(2-piperidin-1-ylpyrimidin-4-yl)oxy]-1-naphthyl}benzamide]	107	> 1000	
O=C1CCN(c2cc(F)cc(C(=O)Nc3ccc(OCCN4CCOCC4)c4ccccc34)c2)CC1 [Compound B198, 3-Fluoro-N-[4-(2-morpholin-4-yl-ethoxy)-naphthalen-1-yl]-5-(4-oxo-piperidin-1-yl)-benzamide]	1770	8500	
O=C(Nc1ccc(OCCN2CCOCC2)c2ccccc12)c1cc(N2CCOCC2)nc(Cl)n1 [Compound B42, 2-Chloro-6-morpholin-4-yl-pyrimidine-4-carboxylic acid [4-(2-morpholin-4-yl-ethoxy)-naphthalen-1-yl]-amide]	6340	> 1000	
CC1CCCCN1c1cc(F)cc(C(=O)Nc2ccc(OCCN3CCOCC3)c3ccccc23)c1 (centres unmarked) [Compound B201, 3-Fluoro-5-(2-methylpiperidin-1-yl)-N-[4-(2-morpholin-4-ylethoxy)-1-naphthyl]benzamide]	323	4730	
O=C(Nc1ccc(OCCN2CCOCC2)c2ccccc12)c1cc(N2CCOCC2)nc(N2CCCC2)n1 [Compound B47]	> 10000	842	
CC1CCN(c2cc(F)cc(C(=O)Nc3ccc(Oc4ccnc(NC5CCCC5)n4)c4ccccc34)c2)CC1 [Compound B266, N-(4-{[2-(Cyclopentylamino)pyrimidin-4-yl]oxy}-1-naphthyl)-3-fluoro-5-(4-methylpiperidin-1-yl)benzamide]	363	256	
COC(CNc1nccc(Oc2ccc(NC(=O)c3cc(F)cc(N4CCOCC4)c3)c3ccccc23)n1)OC [Compound B357]	3	30.1	
O=C(Nc1ccc(OCCN2CCOCC2)c2ccccc12)c1cc(F)cc(N2CCOCC2)c1 [Compound B206, 3-Fluoro-5-morpholin-4-yl-N-[4-(2-morpholin-4-ylethoxy)-1-naphthyl]benzamide]	1020	4230	
CC(=O)Nc1cccc(C(=O)Nc2ccc(OCCN3CCOCC3)c3ccccc23)c1 [Compound B32]	7490	> 10000	
O=C(Nc1ccc(NCCN2CCOCC2)c2ccccc12)c1cc(F)cc(N2CCOCC2)c1 [Compound B241]	8250	9420	
CCN1CCC[C@H]1CNc1nccc(Oc2ccc(NC(=O)c3cc(F)cc(N4CCCCC4)c3)c3ccccc23)n1 [Compound B419, N-(4-{[2-({[(2S)-1-Ethylpyrrolidin-2-yl]methyl}amino)pyrimidin-4-yl]oxy}-1-naphthyl)-3-fluoro-5-piperidin-1-ylbenzamide]	3	55.4	
Cc1ccc(N2CCOCC2)cc1C(=O)Nc1ccc(OCCN2CCOCC2)c2ccccc12 [Compound B39, 2-Methyl-5-morpholin-4-yl-N-[4-(2-morpholin-4-yl-ethoxy)-naphthalen-1-yl]-benzamide]	2460	2760	
O=C(Nc1ccc(OCCN2CCOCC2)c2ccccc12)c1cc(Br)cc(I)c1 [Compound B27]	> 100000	> 10000	
CSc1cccc(-c2cccc(C(=O)Nc3ccc(OCCN4CCOCC4)c4ccccc34)c2)c1 [Compound B298]	7370	> 10000	
